Source: US7148243B2, “Antivirals” (Medivir AB, priority 1998, dated 2006)
Where “and” joins values, the source holds several entries; their conditions need not be identical. Equal entries are not always repeated. Where two headings read alike, the source gives them in different places. Blank lines part the entries; values can stand above or below the compound they belong to.

Tests used:
[1] = Release of mother compound from orally administered prodrug, plasma level (Biological Example 4); assay type: in vivo, Sprague Dawley rats; details: oral Example 7 0.027 mmol/kg in propylene glycol, released Example 6 assayed
Procedure: The release of a compound of Formula I from an orally administered prodrug of Formula II was monitored in rats. The compound of Example 7 was made up in a propylene glycol vehicle and orally administered to paired fasted male Sprague Dawley rats at a dose corresponding to 0.027 mmol/kg. At the indicated time intervals, 0.2 ml blood was collected from a catheter implanted in the […] jugularis, centrifuged and frozen for later analysis. The released drug of Formula I (Example 6) was assayed by HPLC.

[2] = Bioavailability in different species, plasma level of mother compound (Biological Example 7); assay type: in vivo; details: rat, Example 12 0.026 mmol/kg, acacia/Tween
Procedure: Each substance was administered to duplicate rats.
(§1) A prodrug of the invention of Formula II (Example 12) was administered at the same dose (0.026 mmol/kg) and in the same vehicle (10% acacia and 1% Tween in water) to rats and cynomolgus monkeys. Plasma levels of the mother compound of Formula I (Example 10) was measured as a function of time.
The corresponding data for the compound of Example 28 (rat: acacia/Tween, monkey:propylene glycol) are shown in Table 5A: […]

[3] = as above; assay type: in vivo, cynomolgus monkeys; details: monkey, Example 12 0.026 mmol/kg, acacia/Tween
Procedure: Monkeys were fasted for 12 hours prior to oral administration but had free access to water. The test compound was delivered via an infant nasogastric feeding tube. After 6 hours the monkeys received an apple.
as §1

HIV-1 IIIB = assay: Time to resistance, weekly passage in MT4 cells (Biological Example 2); assay type: cell-based; details: growth of viral resistance against time, FIG. 1, versus closest Santa Fe compound
Procedure: 2×10^4 MT4 cells per well in a microtitre plate are infected with 5–10 TCID50 of HIV-1 IIIB. The compounds being tested are added at concentrations around ED50 using 8 duplicates per concentration. After 6 days of incubation the RT activity in 10 μl supernatent is measured.
The following procedure is followed at subsequent passages of the cultures once per week.: Virus produced at the concentration of test compound showing >50% of the RT activity of untreated infected cells (SIC, Starting Inhibitory Concentration) are passaged to fresh MT4 cells. 15 μl supernatent from each of the eight duplicates are transferred to cells without the test compound (control) and to cells with test compound at the same concentration, and additionally two respectively fivefold higher concentrations. (See Table 2 below)
When viral growth is permitted at the highest non-toxic concentration (5–40 μM), 2–4 parallel wells are collected and expanded to give material for sequence analysis and cross-wise resistance.
FIG. 1 plots the growth of viral resistance for a compound of the invention (Example 8) against time. Also plotted is the corresponding curve for the closest Santa Fe compound, mentioned above.

[4] = biological target: T1, HIV reverse transcriptase (Human immunodeficiency virus type 1 group M subtype B, UniProt P04585); assay: Binding kinetics by surface plasmon resonance (Biological Example 10); details: dissociation phase, 25° C., FIG. 3, versus prior art Santa Fe compound
T1 construct: made in house
Excerpt: The rate of association and dissociation of an NNRTI on the target enzyme can be directly assayed by surface plasmon resonance methodology, wherein reverse transcriptase is immobilized on the surface of a chip and the binding or dissociation of the putative inhibitor is monitored by observing the changes in refractive index caused by the concomitant increase or decrease in chip mass. A compound of the invention (Example 8) was compared to the closest prior art compound from Santa Fe, as depicted above. Experiments were performed on a BIACORE® 2000 (Biacore AB, Uppsala, Sweden), using BIAEVALUATION® software (ver 3.0) for evaluation of data. The binding of the small analyte (NNRTI) to the much larger enzyme results in binding responses in the range of 10–20 RU. […] During the dissociation phase there is insignificant change in bulk refractive index, thus the binding of the different substances have been evaluated during this phase. […]
Interaction with inhibitors: Stock solutions of inhibitors (1 mg/ml in DMSO) were dissolved in RT running buffer (10 mM Hepes pH 7.6; 4 mM MgCl2; 0.25 mM spermine; 40 mM KCl; 0.5% TRITON® X-100; 3% DMSO; 0.5% fetal calf serum) to a concentration of […]. Binding of substance to the RT was analysed by injection of […] of the diluted substance, the flow rate was […] and the temperature 25° C. […]

HIV = details: after only four weeks of therapy, virus isolated from patient serum; cited from earlier work
[5] = for plasma level of mother compound: 0.027 mmol/kg
Procedure: The rats used in pharmacokinetic examples were male Sprague-Dawley, with a weight about 200–250 g. The rats were fasted for at least 16 hours before the experiment, but had free access to water. The day before the experiment the rats were anaesthetized using a mixture of Efrane®, laughing gas and oxygen. A catheter was introduced into the vena jugularis. On the day of the experiment the weights of the rats were noted. The animals were shortly anaesthesized before the oral dose was given or the iv dose injected into the back of the neck. Each substance was administered to duplicate rats.
Compounds were dissolved in DMSO for intravenous administration.
The blood samples were centrifuged infectious agents neutralised with 1% SDS/64°/20 min and plasma stored at −20° C.
Plasma samples are prepared as follows: 40–100 μl of plasma is mixed with an equal volume of acetonitrile (10 seconds, Vibrofex). The sample is centrifuged (2 min, 14000 RPM) and 30 μl of the supernantant is injected into an HPLC system, as follows.
The vehicle was 10% acacia and 1% Tween in water or propylene glycol (asterisked).

plasma level of mother compound ([1]; 30 min, individual rats): 240 ng/mL and 350 ng/mL
plasma level of mother compound ([1]; 60 min): 180 ng/mL and 280 ng/mL
plasma level of mother compound ([1]; 120 min): 130 ng/mL and 170 ng/mL
plasma level of mother compound ([1]; 240 min): 70 ng/mL and 120 ng/mL
plasma level of mother compound ([1]; 360 min): 50 ng/mL and 70 ng/mL
SMILES: CCC(=O)c1ccc(F)c([C@H]2C[C@H]2NC(=O)Nc2ccc(C#N)cn2)c1OC(=O)c1cccc(N)c1 (relative stereo) [Example 7, (1R, 2R)-N-[cis-2-(2-(3-aminophenylcarbonyloxy)-6-fluoro-3-propionylphenyl)-cyclopropyl]-N′-(5-cyanopyrid-2-yl)-urea]

plasma level of mother compound ([2]; 30 min, mother compound Example 10): 90 ng/mL and 50 ng/mL
plasma level of mother compound ([2]; 60 min): 100 ng/mL and 70 ng/mL
plasma level of mother compound ([2]; 120 min): 90 ng/mL and 80 ng/mL
plasma level of mother compound ([2]; 180 min): 80 ng/mL
plasma level of mother compound ([2]; 240 min): 60 ng/mL and 50 ng/mL
plasma level of mother compound ([3]; 45 min, mother compound Example 10): 80 ng/mL and 40 ng/mL
plasma level of mother compound ([3]; 90 min): 200 ng/mL and 260 ng/mL
plasma level of mother compound ([3]; 180 min): 1000 ng/mL and 550 ng/mL
plasma level of mother compound ([3]; 240 min): 720 ng/mL and 540 ng/mL
plasma level of mother compound ([3]; 360 min): 380 ng/mL and 390 ng/mL
plasma level of mother compound ([3]; 600 min): 130 ng/mL and 100 ng/mL
plasma level of mother compound ([3]; 24 h): 30 ng/mL
SMILES: CCC(=O)c1ccc(F)c([C@@H]2C[C@@H]2NC(=O)Nc2ccc(Br)cn2)c1OC(=O)c1cccc(N)c1 (relative stereo) [Example 12, (1S, 2S)-N-[cis-2-(2-(3-aminophenylcarbonyloxy)-6-fluoro-3-propionylphenyl)cyclopropyl]-N′-(5-bromopyrid-2-yl)-urea]

SMILES: CCC(=O)c1ccc(F)c([C@@H]2C[C@@H]2NC(=O)Nc2ccc(C#N)cn2)c1O (stereo in doubt) [Example 8, (1 S,2S)-N-(cis-2-(6-fluoro-2-hydroxy-3-propionoylphenyl)-cyclopropyl)-N′-(5-cyanopyrid-2-yl)-urea]
rate of resistance development (HIV-1 IIIB): significantly slower rate of resistance development
dissociation rate from reverse transcriptase [4]: dissociating with the lowest rate

SMILES: Cc1ccnc2c1NC(=O)c1cccnc1N2C1CC1 [nevirapine]
loss of sensitivity of patient virus to the drug versus virus from untreated patients (HIV): 100 fold

SMILES: CCC(=O)c1ccc(F)c([C@@H]2C[C@@H]2NC(=O)Nc2ccc(C#N)cn2)c1OCOC(=O)c1ccc(O)cc1 (relative stereo) [Example 37, (1S, 2S)-N-[cis-2-(6-fluoro-2-O-3-propionylphenyl)-cyclopropyl]-N′-[2-(5-cyanopyridyl)]urea-O-methylene-4-hydroxybenzoate]
plasma level of mother compound ([5]; propylene glycol (asterisked), 30 min): 234 ng/mL and 137 ng/mL
plasma level of mother compound ([5]; propylene glycol, 60 min): 273 ng/mL and 189 ng/mL
plasma level of mother compound ([5]; propylene glycol, 120 min): 111 ng/mL and 133 ng/mL
plasma level of mother compound ([5]; propylene glycol, 240 min): 56 ng/mL and 45 ng/mL
plasma level of mother compound ([5]; propylene glycol, 360 min): 54 ng/mL and 56 ng/mL
absolute oral bioavailability ([5]; determined relative to the iv dose, rats): 28–33%
